This note sets out measurements from PubChem BioAssay (NCI).

Several values for one entry are separate records, joined by “and”; a condition that tells them apart may be missing. Equal entries are not always repeated.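 Step 1: Grow cells in 96-well plates. Step 2: Expose to compound for 48 hours at 5 concentrations. Step 3: Interpolate endpoints linearly; if unreached, use highest concentration. GI50 is the concentration that inhibits growth by half. TGI: concentration producing complete growth inhibition.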 Some results are limits rather than exact numbers.

Test systems include A498 renal; A549 NSCLC; HCT-116 colon; HOP-62 NSCLC; MALME-3M melanoma; MDA-MB-435; MOLT-4 leukemia; SN12C renal; T-47D breast; U251 CNS.
Common to all, as to assay: NCI-60 cell line screen, 48 h

Turning to `Cc1ccc(OCCCCCCNCCO)c(C)c1`, the GI50 in the assay on A498 renal was 3.48 µM; in the assay on A549 NSCLC, 17.8 µM; in the assay with HCT-116 colon, 14.2 µM; in the assay on HOP-62 NSCLC, 15 µM; in the assay with MALME-3M melanoma it was 17 µM; with MDA-MB-435 it was 12.3 µM. The GI50 in the assay with MOLT-4 leukemia is 16.3 µM; in the assay on SN12C renal, 12.7 µM; in the assay on T-47D breast, 11.7 µM; in the assay with U251 CNS it was 12.7 µM. The TGI in the assay with A498 renal was found to be 17.7 µM; in the assay with A549 NSCLC it was 34.8 µM; in the assay with HCT-116 colon, 31.6 µM; in the assay with HOP-62 NSCLC, 30.8 µM; with MALME-3M melanoma it was 35.3 µM; with MDA-MB-435 it was 28.1 µM. The TGI in the assay on MOLT-4 leukemia was found to be 36.8 µM; with SN12C renal it was 26.9 µM; in the assay on T-47D breast, 30.2 µM; with U251 CNS it was 26.8 µM.
With `COc1cc(C2c3cc4c(cc3[C@@H](Nc3cccc(O)c3)C3COC(=O)[C@H]23)OCO4)cc(OC)c1O` (stereo partly specified), the GI50 is 0.86 µM with A498 renal; 0.579 µM with A549 NSCLC; 0.804 µM in the assay with HCT-116 colon; 0.459 µM in the assay with HOP-62 NSCLC; 0.1 µM in the assay with MOLT-4 leukemia; 0.688 µM in the assay on SN12C renal. Moreover, the GI50 with U251 CNS was 0.732 µM. The TGI in the assay with A498 renal came to 5.9 µM; in the assay on A549 NSCLC it was 7.03 µM; in the assay with HCT-116 colon it was 23.3 µM; with HOP-62 NSCLC, 4.24 µM; with MALME-3M melanoma it was 11.2 µM; with MDA-MB-435 it was 18.8 µM. For the same compound, the TGI stood at 0.911 µM in the assay on MOLT-4 leukemia, 6.82 µM in the assay on SN12C renal, 53.2 µM in the assay with T-47D breast and 9.22 µM in the assay with U251 CNS.
With `COc1cc(OC)cc(N2CCN(C(=O)Nc3nc4cc(F)ccc4nc3OC)CC2)c1`, the GI50 is < 0.0164 µM and 0.0126 µM with A498 renal; 0.0367 µM and 0.0449 µM and 0.0357 µM in the assay with A549 NSCLC; 0.0381 µM and 0.0332 µM and 0.0334 µM in the assay with HCT-116 colon; 0.0346 µM and 0.0573 µM and 0.051 µM with HOP-62 NSCLC; 5.45 µM and 12.5 µM with MALME-3M melanoma; < 0.01 µM and 0.01 µM with MDA-MB-435. Also, the GI50 in the assay with MOLT-4 leukemia was 0.049 µM and 0.0457 µM and 0.044 µM; in the assay with SN12C renal, 0.067 µM and 0.0615 µM and 0.0576 µM; in the assay with T-47D breast, 0.832 µM; in the assay on U251 CNS, 0.0356 µM and 0.0448 µM and 0.0428 µM. In addition, the TGI with A549 NSCLC is > 100 µM; in the assay with HCT-116 colon, 1.54 µM and 0.214 µM; with HOP-62 NSCLC it was 58.7 µM and 25.2 µM; with MALME-3M melanoma, 46.8 µM and 44.8 µM; with MDA-MB-435, 0.0215 µM and 0.0336 µM; with MOLT-4 leukemia, 31.1 µM and 30.7 µM. Moreover, the TGI with SN12C renal was 51.1 µM and 24.5 µM; with T-47D breast, 43.8 µM; in the assay on U251 CNS, 27.3 µM and 20.2 µM.
For the compound `CC(=O)N[C@@H]1CCC[C@H](C(=O)Nc2cc(-c3cnn4c3CC(C)(C)C4)c(Cl)cn2)C1`, the GI50 with A498 renal is < 0.01 µM; in the assay with A549 NSCLC, < 0.0108 µM; with HCT-116 colon, < 0.01 µM; with HOP-62 NSCLC, < 0.0113 µM; in the assay with MALME-3M melanoma, 0.0216 µM; with MDA-MB-435, < 0.013 µM. The GI50 was < 0.0117 µM in the assay with MOLT-4 leukemia, 0.0103 µM in the assay on SN12C renal, 0.0101 µM in the assay on T-47D breast and < 0.01 µM with U251 CNS. The TGI with A498 renal was 0.0313 µM; with A549 NSCLC, > 100 µM; with HCT-116 colon, > 100 µM; in the assay with HOP-62 NSCLC, > 100 µM; in the assay with MALME-3M melanoma, 0.075 µM; with MDA-MB-435, 11.9 µM. Besides, the TGI was 0.13 µM in the assay with MOLT-4 leukemia, > 100 µM in the assay with SN12C renal, 0.719 µM with T-47D breast and > 100 µM in the assay on U251 CNS.
Turning to `O=C(NO)C(O)C(O)C(O)C(O)CO` (stereo unspecified), the GI50 is > 100 µM in the assay on A498 renal; > 100 µM and 54.1 µM in the assay on A549 NSCLC; > 100 µM and 27.1 µM with HCT-116 colon; > 92.5 µM and 68.3 µM in the assay with HOP-62 NSCLC; > 100 µM in the assay on MALME-3M melanoma; > 100 µM in the assay on MDA-MB-435. In addition, the GI50 in the assay on MOLT-4 leukemia, in the assay on SN12C renal, in the assay with T-47D breast and in the assay with U251 CNS was > 100 µM throughout. Besides, the TGI with A498 renal is > 100 µM; in the assay on A549 NSCLC it was > 100 µM; with HCT-116 colon, > 100 µM and 73.5 µM; in the assay on HOP-62 NSCLC, > 100 µM; in the assay with MALME-3M melanoma it was > 100 µM; in the assay with MDA-MB-435 it was > 100 µM. Also, the TGI in the assay on MOLT-4 leukemia, in the assay with SN12C renal, in the assay on T-47D breast and in the assay on U251 CNS was > 100 µM throughout.
On to `CC1(C)CC2(C)OC2C2(C1)N=NC(=Nc1ccccc1)O2` (stereo unspecified), for which the GI50 is 16.7 µM with A498 renal; 11 µM in the assay with A549 NSCLC; 1.29 µM in the assay on HCT-116 colon; 8.76 µM in the assay on HOP-62 NSCLC; 3.07 µM in the assay on MALME-3M melanoma; 3.01 µM in the assay with MDA-MB-435. In addition, the GI50 in the assay with MOLT-4 leukemia is 2.63 µM; in the assay on SN12C renal, 2.48 µM; with T-47D breast, 2.83 µM; with U251 CNS, 13 µM. For the same compound, the TGI in the assay on A498 renal was 34.8 µM; in the assay with A549 NSCLC, 39.5 µM; with HCT-116 colon, 6.45 µM; in the assay on HOP-62 NSCLC, 30.4 µM; in the assay on MALME-3M melanoma, 12.1 µM; in the assay on MDA-MB-435 it was 24.2 µM. Also, the TGI in the assay on MOLT-4 leukemia amounted to 9.96 µM; with SN12C renal it was 8.33 µM; with T-47D breast it was 14.4 µM; with U251 CNS, 26 µM.
On to `CCCCCCCCCCCCCCCC(=O)OCC1OC(n2ccc(N)nc2=O)C(O)C1O` (stereo unspecified), for which the TGI in the assay with A498 renal is > 100 µM; with A549 NSCLC, > 100 µM; in the assay on HCT-116 colon, > 100 µM; with HOP-62 NSCLC it was > 66.6 µM; in the assay on MALME-3M melanoma, > 54.6 µM; in the assay on MDA-MB-435, > 100 µM. Further, the TGI was 44.8 µM in the assay with MOLT-4 leukemia, > 100 µM in the assay with SN12C renal, > 100 µM with T-47D breast and > 100 µM with U251 CNS.
On to `O=C(CN=Cc1cccs1)CSC(c1ccccc1)c1ccccc1`, for which the GI50 in the assay on A498 renal was 16.6 µM; with A549 NSCLC, 21.7 µM; with HCT-116 colon, 16.4 µM; with HOP-62 NSCLC it was 34 µM; in the assay with MALME-3M melanoma, 19.6 µM; with MDA-MB-435 it was 17.7 µM. For the same compound, the GI50 was 18.5 µM in the assay with MOLT-4 leukemia, 19.6 µM in the assay on SN12C renal, 20.1 µM in the assay on T-47D breast and 34.5 µM in the assay with U251 CNS. For the same compound, the TGI with A498 renal was 45.8 µM; with A549 NSCLC, 76.1 µM; in the assay with HCT-116 colon it was 40.7 µM; with HOP-62 NSCLC, > 100 µM; in the assay with MALME-3M melanoma, 49.4 µM; in the assay with MDA-MB-435, 36.3 µM. Moreover, the TGI with MOLT-4 leukemia is 69.1 µM; in the assay with SN12C renal, 36.1 µM; in the assay on T-47D breast, 84.3 µM; with U251 CNS, > 100 µM.
